In one assay the test system is Plasmodium falciparum. The assay is described as follows: Antiplasmodial activity against Plasmodium falciparum 3D7 by Giemsa staining. Type of assay: functional, organism-based.
Another assay relates to P388. Kind of assay: Cytotoxicity against mouse P388 cells by MTT assay. In kind it is cell-based.

As a reminder, the IC50 is the concentration needed to halve the response being measured. Lower therefore signals higher potency.

In brackets after ≈: the same amount, converted by molar mass.

For the compound `CC(=O)O[C@@H]1[C@H]2[C@@H](O)C=CC(=O)[C@]2(C)[C@H]2CC[C@]3(C)C(=CC[C@H]3c3ccoc3)[C@]2(C)[C@@H]1O` [CERAMICINES A], the IC50 in the assay on Plasmodium falciparum worked out at 44.2 µg/mL (≈ 100 µM).
Take `C[C@]12C3=CC[C@@H](c4ccoc4)[C@]3(C)CC[C@@H]1[C@@]1(C)C(=O)C=C[C@@]3(C)CO[C@@H]([C@H]2O)[C@H]13` [CERAMICINES B]: the IC50 with Plasmodium falciparum came to 0.23 µg/mL (≈ 0.563 µM); with P388, 15 µg/mL (≈ 36.7 µM).
The like results for `C=C(C)C(=O)O[C@H]1C[C@H]2[C@](C)(C3=CC[C@@H](c4ccoc4)[C@@]31C)[C@H](O)[C@@H]1OC[C@]3(C)C=CC(=O)[C@@]2(C)[C@@H]13` [CERAMICINES C] were, in that order, 2.38 µg/mL (≈ 4.83 µM) and 5.5 µg/mL (≈ 11.2 µM).
For `C[C@]12C3=CC[C@@H](C4=CCOC4=O)[C@]3(C)CC[C@@H]1[C@@]1(C)C(=O)C=C[C@@]3(C)CO[C@@H]([C@H]2O)[C@H]13` [CERAMICINES D] the same measures were 2.15 µg/mL (≈ 5.06 µM) and 27 µg/mL (≈ 63.6 µM).

Source of the values: ChEMBL document CHEMBL1140858, “Ceramicines B-D, new antiplasmodial limonoids from Chisocheton ceramicus” (Bioorg Med Chem, 2009).
